Assay results: patent publication US9994587B2, “HIV protease inhibitors” (priority 2014, dated 2018)

biological target: T1, wildtype HIV-1 protease (Human immunodeficiency virus type 1 group M subtype B, UniProt P04585); assay: Assay for inhibition of microbial expressed HIV protease (Pepcleav); type: biochemical; settings: wild type HIV-1 protease 20 pM, peptide substrate 400 micromolar, pH 5.5; mean of at least two independent experiments
T1 construct: preincubated with the HIV-1 protease (wild type) enzyme in assay buffer; made in house; host or cells: Escherichia coli
Outline: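 E. coli-expressed enzyme preincubated with inhibitor 30 min at room temperature in 50 mM sodium acetate pH 5.5, 100 mM NaCl, 0.1% BSA, then 400 micromolar peptide substrate added with 20 picomolar protease (final), 1 h at 30° C. Product quantified by LC-MS/MS peak area after formic acid/indinavir quench.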

Compared with COC(=O)N[C@H](C(=O)Nc1ccccc1CC[C@@H]1CNC[C@@H](COc2cccc3ncccc23)O1)C(c1ccccc1)c1ccccc1 [Example 51, methyl [(2S)-1-oxo-3,3-diphenyl-1-{[2-[2-{(2R,6S)-6-[(quinolin-5-yloxy)methyl]morpholin-2-yl}ethyl)phenyl]amino}propan-2-yl]carbamate], COC(=O)N[C@H](C(=O)Nc1ccccc1CC[C@@H]1CNC[C@@H](COc2cccc3nn[nH]c23)O1)C(c1ccccc1)c1ccccc1 [Example 40, N-[2-(2-{(2R,6S)-6-[(1H-benzotriazol-7-yloxy)methyl]morpholin-2-yl}ethyl)phenyl]-Na-(methoxycarbonyl)-b-phenyl-L-phenylalaninamide] is 4.9-fold higher in IC50: 14 nM for the first, 68 nM for the second.

Going from COC(=O)N[C@H](C(=O)Nc1c(CC[C@@H]2CNC[C@@H](COc3ccc(C#N)cc3)O2)cc[nH]c1=O)C(c1ccccc1)c1ccccc1 [Example 86, N-[4-(2-{(2R,6S)-6-[(4-cyanophenoxy)methyl]morpholin-2-yl}ethyl)-2-oxo-1,2-dihydropyridin-3-yl]-Nα-(methoxycarbonyl)-β-phenyl-L-phenylalaninamide] to COC(=O)N[C@H](C(=O)Nc1cncc(F)c1CC[C@@H]1CNC[C@@H](COc2ccc(C#N)cc2)O1)C(c1ccccc1)c1ccccc1 [Example 82, Methyl[(1S)-2-{[4-(2-{(2R,6S)-6-[(4-cyanophenoxy)methyl]morpholin-2-yl}ethyl)-5-fluoropyridin-3-yl]amino}-1-(diphenylmethyl)-2-oxoethyl]carbamate], the IC50 rises from 4.1 nM to 9.8 nM (2.4-fold). The first is the more potent here.

Going from COC(=O)N[C@H](C(=O)Nc1ccccc1CC[C@@H]1CNC[C@@H](CSc2cccc(C#N)c2)O1)C(c1ccccc1)c1ccccc1 [Example 24, methyl N-[(1S)-1-benzhydryl-2-[[2-[2-[(2R,6S)-6-[(3-cyanophenyl)sulfanylmethyl]morpholin-2-yl]ethyl]phenyl]amino]-2-oxo-ethyl]carbamate] to COC(=O)N[C@H](C(=O)Nc1ccccc1CC[C@@H]1CNC[C@@H](CSc2ccc(C#N)cc2)O1)C(c1ccccc1)c1ccccc1 [Example 22, methyl N-[(1S)-1-benzhydryl-2-[[2-[2-[(2R,6S)-6-[(4-cyanophenyl)sulfanylmethyl]morpholin-2-yl]ethyl]phenyl]amino]-2-oxo-ethyl]carbamate], the IC50 falls from 2.1 nM to 1.1 nM (1.9-fold).

First: COC(=O)N[C@H](C(=O)Nc1ccccc1CC[C@@H]1CNC[C@@H](CSc2ccc(Cl)cc2)O1)[C@@H](c1ccccc1)c1cccnc1 [Example 66, (βS)—N-(2-{2-[(2R,6S)-6-{[(4-chlorophenyl)sulfanyl]methyl}morpholin-2-yl]ethyl}phenyl)-Nα-(methoxycarbonyl)-β-pyridin-3-yl-L-phenylalaninamide]
Second: COC(=O)N[C@H](C(=O)Nc1ccccc1CC[C@@H]1CNC[C@@H](CSc2ccc(Cl)cc2)O1)[C@@H](c1ccccc1)c1ccnc2ccccc12 [Example 68, methyl[(2S,3S)-1-[(2-{2-[(2R,6S)-6-{[(4-chlorophenyl)sulfanyl]methyl}morpholin-2-yl]ethyl}phenyl)amino]-1-oxo-3-phenyl-3-(quinolin-4-yl)propan-2-yl]carbamate]
The IC50 of the first is 6.7-fold higher: 0.2 nM for the first, 0.03 nM for the second. The second is the more potent here.

Going from COC(=O)N[C@H](C(=O)Nc1ccccc1CC[C@@H]1CNC[C@@H](CSc2ccc(Br)cc2F)O1)C(c1ccccc1)c1ccccc1 [Example 27, methyl N-[(1S)-1-benzhydryl-2-[[2-[2-[(2R,6S)-6-[(4-bromo-2-fluoro-phenyl)sulfanylmethyl]morpholin-2-yl]ethyl]phenyl]amino]-2-oxo-ethyl]carbamate] to COC(=O)N[C@H](C(=O)Nc1ccccc1CC[C@@H]1CNC[C@@H](CSc2cccc(S(C)(=O)=O)c2)O1)C(c1ccccc1)c1ccccc1 [Example 23, methyl N-[(1S)-1-benzhydryl-2-[[2-[2-[(2R,6S)-6-[(3-methylsulfonylphenyl)sulfanyl-methyl]morpholin-2-yl]ethyl]phenyl]amino]-2-oxo-ethyl]carbamate], the IC50 rises from 0.53 nM to 0.8 nM (1.5-fold).

Compared with COC(=O)N[C@H](C(=O)Nc1ccccc1CC[C@@H]1CNC[C@@H](CCc2ccc(C#N)cc2)O1)C(c1ccccc1)c1ccccc1 [Example 63, N-[2-(2-{(2R,6R)-6-[2-(4-cyanophenyl)ethyl]morpholin-2-yl}ethyl)phenyl]-N-α-(methoxycarbonyl)-β-phenyl-L-phenylalaninamide], COC(=O)N[C@H](C(=O)Nc1ccccc1CC[C@@H]1CNC[C@@H](COCc2ccc(Cl)cc2)O1)C(c1ccccc1)c1ccccc1 [Example 59, methyl N-[(1S)-1-benzhydryl-2-[[2-[2-[(2R,6S)-6-[(4-chlorophenyl)methoxymethyl]morpholin-2-yl]ethyl]phenyl]amino]-2-oxo-ethyl]carbamate] is 7-fold higher in IC50: 8.8 nM for the first, 62 nM for the second.

First: COC(=O)N[C@H](C(=O)Nc1ccccc1CC[C@@H]1CNC[C@@H](COc2ccc(S(C)(=O)=O)cc2)O1)C(c1ccccc1)c1ccccc1 [Example 16, methyl N-[(1S)-1-benzhydryl-2-[[2-[2-[(2R,6S)-6-[(4-methylsulfonylphenoxy)methyl]morpholin-2-yl]ethyl]phenyl]amino]-2-oxo-ethyl]carbamate]
Second: COC(=O)N[C@H](C(=O)Nc1ccccc1CC[C@H]1CNC[C@@H](CS(=O)(=O)c2ccc(Cl)cc2)O1)C(c1ccccc1)c1ccccc1 [Example 109, N-(2-{2-[(2S,6S)-6-{[(4-chlorophenyl)sulfonyl]methyl}morpholin-2-yl]ethyl}phenyl)-Nα-(methoxycarbonyl)-β-phenyl-L-phenylalaninamide]
The IC50 of the first is 41-fold lower: 19 nM for the first, 770 nM for the second. The first is the more potent here.

Going from N[C@@H](C(=O)Nc1cncc(F)c1CC[C@@H]1CNC[C@@H](CSc2ccc(Cl)cc2)O1)C(c1ccc(F)cc1)c1ccc(F)cc1 [Example 122, N-(4-{2-[(2R,6S)-6-{[(4-chlorophenyl)sulfanyl]methyl}morpholin-2-yl]ethyl}-5-fluoropyridin-3-yl)-4-fluoro-β-(4-fluorophenyl)-D-phenylalaninamide] to N[C@H](C(=O)Nc1cncc(F)c1CC[C@@H]1CNC[C@@H](COC(=O)NCc2ccc(F)cc2)O1)C(c1ccc(F)cc1)c1ccc(F)cc1 [Example 125, 4-fluoro-N-(5-fluoro-4-{2-[(2R,6S)-6-({[(4-fluorobenzyl)carbamoyl]oxy}methyl)morpholin-2-yl]ethyl}pyridin-3-yl)-β-(4-fluorophenyl)-L-phenylalaninamide], the IC50 rises from 9 nM to 15 nM (1.7-fold). The first is the more potent here.

Going from COC(=O)N[C@H](C(=O)Nc1ccccc1CC[C@@H]1CNC[C@@H](COc2ccc(-n3ccnc3)cc2)O1)C(c1ccccc1)c1ccccc1 [Example 14, methyl N-[(1S)-1-benzhydryl-2-[[2-[2-[(2R,6S)-6-[(4-imidazol-1-ylphenoxy)methyl]morpholin-2-yl]ethyl]phenyl]amino]-2-oxo-ethyl]carbamate] to COC(=O)N[C@H](C(=O)Nc1ccccc1CC[C@@H]1CNC[C@@H](COc2ccc(-n3cncn3)cc2)O1)C(c1ccccc1)c1ccccc1 [Example 15, methyl N-[(1S)-1-benzhydryl-2-oxo-2-[[2-[2-[(2R,6S)-6-[[4-(1,2,4-triazol-1-yl)phenoxy]methyl]morpholin-2-yl]ethyl]phenyl]amino]ethyl] carbamate], the IC50 falls from 32 nM to 12 nM (2.7-fold).

First: COC(=O)N[C@H](C(=O)Nc1ccccc1CC[C@@H]1CNC[C@@H](CSc2nnc(Cn3nccc3C)o2)O1)C(c1ccccc1)c1ccccc1 [Example 33, methyl N-[(1S)-1-benzhydryl-2-[[2-[2-[(2R,6S)-6-[[5-[(5-methylpyrazol-1-yl)methyl]-1,3,4-oxadiazol-2-yl]sulfanylmethyl]morpholin-2-yl]ethyl]phenyl]amino]-2-oxo-ethyl]carbamate]
Second: COC(=O)N[C@H](C(=O)Nc1ccccc1CC[C@@H]1CNC[C@@H](COc2ccc3cn[nH]c3c2)O1)C(c1ccccc1)c1ccccc1 [Example 45, N-[2-(2-{(2R,6S)-6-[(1H-indazol-6-yloxy)methyl]morpholin-2-yl}ethyl)phenyl]-Nα-(methoxycarbonyl)-β-phenyl-L-phenylalaninamide]
The IC50 of the first is 16-fold lower: 0.67 nM for the first, 11 nM for the second. The first is the more potent here.

Compared with COC(=O)N[C@H](C(=O)Nc1ccccc1CCC1CNC[C@@H](COc2ccccc2-c2cc[nH]n2)O1)C(c1ccccc1)c1ccccc1 (stereo in doubt) [Example 110, Nα-(methoxycarbonyl)-β-phenyl-N-(2-{2-[(2R,6S)-6-{[2-(1H-pyrazol-3-yl)phenoxy]methyl}morpholin-2-yl]ethyl}phenyl)-L-phenylalaninamide], COC(=O)N[C@H](C(=O)Nc1ccccc1CC[C@@H]1CNC[C@@H](COc2ccc(-n3ccnc3)cc2)O1)C(c1ccccc1)c1ccccc1 [Example 108, N-(2-{2-[(2R,6S)-6-{[4-(1H-imidazol-1-yl)phenoxy]methyl}morpholin-2-yl]ethyl}phenyl)-Nα-(methoxycarbonyl)-β-phenyl-L-phenylalaninamide] is 6.8-fold lower in IC50: 250 nM for the first, 37 nM for the second. The second is the more potent here.

Compared with C#C[C@@H]1CNC[C@@H](CCc2ccccc2NC(=O)[C@@H](NC(=O)OC)C(c2ccccc2)c2ccccc2)O1 [Example 111, N-(2-{2-[(2R,6R)-6-ethynylmorpholin-2-yl]ethyl}phenyl)-Nα-(methoxycarbonyl)-β-phenyl-L-phenylalaninamide], N[C@H](C(=O)Nc1cncc(F)c1CC[C@@H]1CNC[C@@H](COC(=O)NCCc2ccccc2)O1)C(c1ccc(F)cc1)c1ccc(F)cc1 [Example 130, 4-fluoro-β-(4-fluorophenyl)-N-(5-fluoro-4-{2-[(2R,6S)-6-({[(2-phenylethyl)carbamoyl]oxy}methyl)morpholin-2-yl]ethyl}pyridin-3-yl)-L-phenylalaninamide] is 66-fold lower in IC50: 580 nM for the first, 8.8 nM for the second. The second is the more potent here.

In the case of N[C@H](C(=O)Nc1cncc(F)c1CC[C@@H]1CNC[C@@H](COC(=O)N2CCOCC2)O1)C(c1ccc(F)cc1)c1ccc(F)cc1 [Example 105, {(2S,6R)-6-[2-(3-fluoro-5-{[4-fluoro-β-(4-fluorophenyl)-L-phenylalanyl]amino}pyridin-4-yl)ethyl]morpholin-2-yl}methyl morpholine-4-carboxylate], the IC50 is reported as 29 nM.
